Experimental data taken from patent publication US11684598B2, “Use of cannabinoids in the treatment of epilepsy” (priority 2015, dated 2023).

Experiments:
[1] = test system: seizures; settings: 200 mg/day pure CBD, four adult patients; cited from earlier work
[2] = test system: D. discoideum cell growth; test: D. discoideum growth assay; assay type: cell-based, Dictyostelium discoideum
Protocol: Wild type (A×2) D. discoideum cells were grown in shaking culture (in HL5 medium) for two days prior to growth assays. Cells (9900 in 495 μl of media) were added to each well of a 24 well plate and 5 μl of cannabinoid in DMSO (or DMSO only) was added to each well to achieve each described concentration (1% final DMSO concentration), and cells were maintained at 22° C. Cells were counted at 72 hours, and then every 24 hours. Quadruplicate repeats were used for each concentration.

[3] = test system: PTZ-induced generalised seizures; test: Acute PTZ-induced model of generalised seizure; assay type: in vivo, rat
Protocol: Adult male Wistar Kyoto rats were used in the acute PTZ model of seizure (>P24, 70-110 g). Animals were housed five per cage in a heat regulated room (21° C.) on a 12:12 h day/night cycle (lights on 0800) in 50% humidity and given ad libitum access to standard laboratory chow (PCD Mod C, Special Diet Services, Wiltham, UK) and water. All procedures were undertaken during white light hours.
A PTZ (Sigma-Aldrich, Poole, UK) stock solution was made in 0.9% w/v NaCl for the experimental procedure.
PTZ antagonises GABA inhibition via binding to the t-butyl-bicycl-phosphorothionate site of GABAA receptors. Moreover, this chemically-induced model can be indicative of effects against absence seizures. PTZ (90 mg/kg) was used to induce seizures in adult male Wistar rats (n=15 per group) with experiment dose randomised using a Latin square design. Animals were placed in their 6 L Perspex tanks and allowed to acclimatise to their environment for 10 min, before receiving one of the cannabinoid doses (see Table 5) in vehicle, or volume-matched dose of vehicle alone to serve as a negative control. 60 min after test compound or vehicle administration, animals were injected with PTZ (90 mg/kg, i.p.) to induce seizures and animal behaviour was recorded for 30 min.
Videos of PTZ-induced seizures were scored offline with a standard seizure severity scale appropriate for generalised seizures (Table 6).
Videos of seizure behaviour generated from the custom built observational system were scored offline according to seizure scales appropriate for PTZ model (Table 6) using Observer Video-Pro software (Noldus, Wageningen, The Netherlands). For the PTZ model of seizure, intra- and inter-observer agreements of behaviour scoring were assessed using the reliability analysis function of the observer Video-Pro software: 1 s tolerance window; Cohen's Kappa coefficient≥0.95.
Specific markers of seizure behaviour and development were assessed and compared between vehicle control and drug groups. The latency (s) to seizure onset and the percentage of animals that developed tonic-clonic seizures was noted (see Table 6). In addition, the maximum seizure severity and the percentage mortality in each group were determined for the acute PTZ model of generalised seizure.
The effect of drug on latency to seizure onset and maximum seizure severity were assessed using Krustal-Wallis with post-hoc Mann-Whitney U-tests. Drug effects on the percentage of animals that developed tonic-clonic seizures and percentage mortality were assessed using Chi-squared with post-hoc Fisher exact tests. In all cases, P≤0.05 was considered significant.

## C=C(C)[C@@H]1CCC(C)=C[C@H]1c1c(O)cc(CCCCC)cc1O [CBD, Cannabidiol]
[1]
  seizure freedom: two of the four patients became seizure free
[2]; Dictyostelium discoideum, secondary plot of cell density at 144 hours, read-out: growth inhibitory constant (IC50)
  IC50: 1630 nM
[2]; growth over one week
  concentration blocking growth: 20 µM
  concentration significantly inhibiting cell growth (P<0.05): 0.5 µM
[3]; 100 mg/kg CBD (P≤0.01), 100 mg/kg CBDA (P=0.0656), CBD/CBDA ratio (P=0.0656)
  effect on percentage mortality: significantly reduced
[3]; 100 mg/kg CBD (P≤0.05), CBD/CBDA 9:1 (P≤0.05), CBDA 100 mg/kg (P=0.0929)
  effect on latency to seizure onset: significantly increasing latency to onset
[3]; 100 mg/kg, PTZ 90 mg/kg i.p. 60 min after compound, scale of Table 6, n=15
  median score for the maximum seizure severity: 5
